These results are taken from publication PMC5069162 (Anesthesiology, 2016).

Series [1] deals with 11β-hydroxylase. The note with it: estimated by Zolle et al.; cited from earlier work.
In series [2] the target is T1, 11β-hydroxylase (Rattus norvegicus, UniProt P15393).
T1 sequence (P15393 25-499): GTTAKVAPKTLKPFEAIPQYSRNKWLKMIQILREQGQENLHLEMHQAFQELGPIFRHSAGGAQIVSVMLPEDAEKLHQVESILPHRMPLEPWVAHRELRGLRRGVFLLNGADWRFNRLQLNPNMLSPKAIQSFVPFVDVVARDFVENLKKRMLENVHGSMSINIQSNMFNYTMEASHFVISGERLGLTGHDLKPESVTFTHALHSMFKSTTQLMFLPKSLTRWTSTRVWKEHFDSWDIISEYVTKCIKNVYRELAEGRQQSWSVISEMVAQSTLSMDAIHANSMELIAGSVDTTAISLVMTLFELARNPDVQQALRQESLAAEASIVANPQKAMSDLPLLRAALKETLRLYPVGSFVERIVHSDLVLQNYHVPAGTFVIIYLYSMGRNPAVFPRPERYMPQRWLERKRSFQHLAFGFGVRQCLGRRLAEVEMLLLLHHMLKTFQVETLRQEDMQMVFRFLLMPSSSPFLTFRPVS
It counts as binding. Conditions: for Hill coefficient for inhibition of specific 3H-etomidate binding / IC50: 2 nM 3H-etomidate; for Hill coefficient for inhibition of specific 3H-etomidate binding: equation 2; for IC50 higher than that of etomidate: ratio of IC50s for 3H-etomidate binding; for IC50: 0.07 mg/ml protein.

The subject of series [3] is H295R adrenocortical cells. The note with it: cited from earlier work.
The subject of a further series is rat adrenocortical cells. The note with it: read-out: IC50 for inhibiting corticosterone synthesis; cited from earlier work.
The target in series [4] is T1, 11β-hydroxylase. It counts as binding.
Another series deals with rats. The note with it: in rats; cited from earlier work.
The conditions of series [5]: after 2-hr infusion of parent drug in dogs; cited from earlier work.
[6] abbreviates: read-out: half-inhibitory concentration (IC50) for specific 3H-etomidate binding.
Where [7] appears, read: half-inhibitory concentration (IC50) for specific 3H-etomidate binding.

Where “and” joins values, the source holds several entries; their conditions need not be identical. Equal entries are not always repeated. Where two headings read alike, the source gives them in different places. Bounds are passed on as bounds.

The term Kd denotes a measure of binding affinity in units of concentration.

Take `COC(=O)c1cncn1C(C)c1ccc(I)cc1` (centres unmarked): the Kd at 11β-hydroxylase [1] was 0.0116 ± 0.0025 µM.
Take `CCOC(=O)c1cccn1[C@H](C)c1ccccc1` [carboetomidate]: at 11β-hydroxylase [2], the “Hill coefficient for inhibition of specific 3H-etomidate binding” value (“Hill coefficient for inhibition” below) is on record as −0.27 and the “IC50 higher than that of etomidate” value is reported as 1900 fold. Also, the IC50 on 11β-hydroxylase [2] (setting [6]) was ≥ 50 µM and 50 µM. For the same compound, in series [3] (H295R adrenocortical cells), the “IC50 for suppressing in vitro cortisol synthesis higher than etomidate” value is recorded as 2000 fold. Moreover, the “potency at inhibiting cortisol synthesis relative to etomidate” value in series [3] (adrenocortical cell line) was “three orders of magnitude less potent than etomidate”.
Regarding `Cc1cccc([C@H](C)c2cnc[nH]2)c1C` [dexmedetomidine, reference compound], on 11β-hydroxylase [2], the “Hill coefficient for inhibition” value is given as −0.33. In addition, the IC50 on 11β-hydroxylase [2] (setting [7]) was 2.2 µM; in the series on rat adrenocortical cells, 1 µM.
Regarding `CCOC(=O)c1cncn1[C@H](C)c1ccccc1` [etomidate, reference compound], the Kd on 11β-hydroxylase [4] was 0.021 µM. Further, the “maximum concentration of binding sites (Bmax), homologous competition” value on 11β-hydroxylase [4] (2 nM 3H-etomidate vs cold etomidate, equation 1) was 11,700 CPM. Besides, the “Hill coefficient for inhibition” value at 11β-hydroxylase [2] was −0.82. The hypnotic potency in the series with rats is on record as 0.53 ± 0.17 mg/kg.
For `C[C@H](c1ccccc1)n1cncc1C(=O)O` [etomidate-CA], the “Hill coefficient for inhibition” value on 11β-hydroxylase [2] is listed as −0.32. The IC50 at 11β-hydroxylase [2] (setting [6]) was determined as 1100 µM. The maximal metabolite concentration in series [5] was 1680 ng/ml and 7.8 μM.
In the case of `CNC1(c2ccccc2Cl)CCCCC1=O` (centres unmarked) [ketamine, reference compound], the “Hill coefficient for inhibition” value on 11β-hydroxylase [2] is −0.23. Also, the IC50 on 11β-hydroxylase [2] (setting [7]) was ≥ 50 µM and 79 µM.
On to `CC(C)c1cccc(C(C)C)c1O` [propofol, reference compound], for which the IC50 at 11β-hydroxylase [2] (setting [7]) is above 100 µM.
Take “cyclopropyl methoxycarbonyl metomidate [CPMM]”: at 11β-hydroxylase [2], the “Hill coefficient for inhibition” value is on record as −0.55 and the “IC50 higher than that of etomidate” value was 5.5 fold. Moreover, the IC50 on 11β-hydroxylase [2] (setting [6]) was 0.143 µM. Also, the hypnotic potency in the series on rats was 0.69 ± 0.04 mg/kg.
